Several values for one entry are separate records, joined by “and”; a condition that tells them apart may be missing. Equal entries are not always repeated. Where no end group is shown, it is not given here.
How the values were obtained:
[1] = biological target: T1, hCRHR2α G13 (Homo sapiens, UniProt Q13324); assay: ebBRET EMTA, G13 biosensor; format: cell-based; settings: HEK293 cells, CRHR2a, n = 2 independent experiments
T1 construct: expressed in transfected cells; host or cells: HEK293 cells (Millipore Sigma), transient PEI co-transfection with biosensor plasmids at Domain Therapeutics
T1 sequence (Q13324 1-411): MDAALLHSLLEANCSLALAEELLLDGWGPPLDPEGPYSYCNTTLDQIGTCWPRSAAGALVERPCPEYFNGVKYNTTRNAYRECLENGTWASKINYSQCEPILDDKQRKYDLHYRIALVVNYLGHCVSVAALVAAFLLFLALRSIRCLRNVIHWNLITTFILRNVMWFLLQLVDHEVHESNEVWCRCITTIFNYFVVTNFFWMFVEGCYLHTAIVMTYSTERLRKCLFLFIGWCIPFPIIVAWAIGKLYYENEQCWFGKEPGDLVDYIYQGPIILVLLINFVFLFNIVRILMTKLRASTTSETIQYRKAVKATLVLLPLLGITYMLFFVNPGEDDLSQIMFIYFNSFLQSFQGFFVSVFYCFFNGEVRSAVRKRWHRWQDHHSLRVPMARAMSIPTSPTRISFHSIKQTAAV
Experimental: Typically, GPCR desensitization is carried out through the recruitment of β-Arrestins or alternative G-proteins to the receptor. To identify whether these proteins are recruited to CRHR2 in response to UCN2, enhanced bystander bioluminescence resonance energy transfer (ebBRET)-based effector membrane translocation assays (EMTA) were carried out in HEK293 cells[28],[29]. Cells were co-transfected with plasmids expressing unmodified CRHR2a (alpha isoform) and one of various pathway-specific biosensors. […]
Effector membrane translocation biosensor assays (bioSensAll®) were conducted at Domain Therapeutics NA Inc. (Montreal, QC, Canada) and described in cells[28],[29]. […] Briefly, DNA and PEI were diluted separately in 150 mM NaCl, mixed and then incubated for at least 20 min at room temperature (note: salmon sperm DNA (Invitrogen) was used to adjust the total amount of DNA transfected to a final quantity of 1 ug per mL of cell culture to be transfected). During the 20-minute incubation, HEK293 cells were detached, counted and resuspended into cell culture medium to a final density of 350,000 cells per mL. […] Cells were then incubated at room temperature for 10 min and BRET readings subsequently collected with a 0.4 s integration time on a Synergy NEO plate reader (BioTek Instruments, Inc., USA; filters: 400 nm/70 nm, 515 nm/20 nm). […]

[2] = test system: mouse soleus muscle; assay: Ex vivo soleus muscle [3H]2-deoxyglucose uptake
Experimental: Soleus muscle was removed from fed animals anesthetized by an intraperitoneal injection of pentobarbital (10 mg/100 g body weight). Dissected soleus muscles were suspended at 5 mN of tension in incubation chambers (Model 610/820 M, Danish Myo-Technology, Denmark) containing Krebs-Ringer-Buffer supplemented with 0.1% BSA, 2 mM pyruvate and 8 mM Mannitol. During the entire incubation period the KRB was maintained at 30 °C and oxygenated with 95% O2 and 5% CO2. Following 10 min of pre-incubation muscles were incubated in Krebs buffer +/− 100 nM (−7.0 log[M]) UCN2. At the next time point, 30 min later, muscles were placed in baths containing Krebs buffer +/− 100 nM (−7.0 [M]) UCN2. At the next time point, 15 min later, muscles were placed in baths containing Krebs buffer +/− 100 nM (−7.0 log[M]) UCN2 + /− 60 nM Insulin (Actrapid, Novo Nordisk, Bagsvaerd, Denmark) for 15 min. For the ex vivo glucose uptake studies, 1 mM [^3H]2-deoxyglucose (Perkin-Elmer) and 7 mM [^14C]mannitol (Perkin-Elmer) was also added at this time. Muscles that were in saline in the first bath, saline in the second bath, and saline in the third bath were assigned to the SSS group. Muscles that were in saline in the first bath, saline in the second bath, and UCN2 in the third bath were assigned to the SSU group. Muscles that were in UCN2 in the first bath, saline in the second bath, and UCN2 in the third bath were assigned to the USU group. Muscles that were in saline in the first bath, UCN2 in the second bath, and UCN2 in the third bath were assigned to the SUU group. Following incubation, muscles were harvested, washed in ice-cold KRB and immediately frozen in liquid nitrogen.
Glucose uptake was determined in muscle protein lysates by assessing the accumulation of [^3H]2-deoxyglucose with the use of [^14C]mannitol to correct for the extracellular space. Radioactivity was measured by liquid scintillation counting.

**Q.** What does the source list for “IVLSLDVPIGLLQILLEQARARAAREQATTNARILARVGHC-NH2 (C-terminus assumed) [UCN2, Urocortin 2]”?
**A.** G13 recruitment [1]: not recruited; 2DG Uptake ([2]; Fig 6C, UCN2 without insulin, individual muscles): 0.55 µmol/g/h and 1.85 µmol/g/h and 0.61 µmol/g/h and 0.24 µmol/g/h and 0.63 µmol/g/h; insulin-mediated glucose uptake, acute treatment ex vivo ([2]; soleus muscle, 100 nM UCN2, 60 nM insulin): sufficient to blunt insulin-mediated glucose uptake; insulin-mediated glucose uptake after UCN2 pre-treatment ex vivo ([2]; soleus muscle, 100 nM UCN2 pre-treatment (SUU, USU) versus acute (SSU)): increased insulin-mediated glucose uptake relative to acute UCN2 treatment

Reference: article PMC10319809, “Chronic UCN2 treatment desensitizes CRHR2 and improves insulin sensitivity” (Nature Communications, 2023)
